How the values were obtained:
[1] = test system: LPS-induced NO production in RAW264.7 cells; experiment: LPS-induced NO production in RAW264.7 cells (Griess method); type: cell-based, mouse; conditions: LPS 3 µg/mL, 24 h, mean of two experiments
Description: The experimental methods and results about the measurement of extracellular NO production are described as following.
Mouse macrophage-like RAW264. 7 cells were obtained from the European Collection of Authenticated Cell Cultures and cultured in Dulbecco’s Modified Eagle Medium (DMEM) containing 10% fetal bovine serum (FBS). The cells were maintained at 37 °C in a humidified incubator with an […]
RAW264. 7 cells were seeded in 48-well plates (6.0 × 10^4 cells per well) and incubated overnight, and then, 1 or 10 µmol/L of test compounds and 3 µg/mL of lipopolysaccharide (LPS; from Escherichia coli 0111: B4, L3024; Sigma-Aldrich) were added into the medium. Following 24 h after addition, 100 µL of conditioned media were collected and mixed with equal volume of Griess reagent (G4410; Sigma-Aldrich), and the mixture was incubated at room temperature for 15 min. Finally, absorbance was determined at 540 nm wave. Nitrite concentrations were quantified using a calibration curve obtained from a dilute solution of NaNO2. […]
production at concentrations of 1 or 10 µmol/L.
Table S3. Effect of Asiasari Radix ingredients on LPS -induced NO production.
Test Compound (% of LPS Control)
Amide A: (2E,4E,8Z,10E)-N-isobutyl-2,4,8,10-dodecatetraenamide. Each test compound (1 or 10 µmol/L) and lipopolysaccharide (LPS, 3 µg/mL) were added into a culture of RAW264. 7 cells. Following 24 h of substance addition, nitric oxide (NO) released in the cell medium was measured by Griess method. Percentage of NO production was calculated using the following equation: (nitrite concentration after treatment with test compound and LPS/nitrite concentration after treatment with LPS only) × 100. Each value represents the mean of two independent experiments

[2] = test system: LPS-induced NO production in BV-2 microglial cells; parameters: method as in PMID 18293448; conditions: cited from earlier work

Question: For `C/C=C/C=C\CC/C=C/C=C/C(=O)NCC(C)C` [Amide A, (2E,4E,8Z,10E)-N-isobutyl-2,4,8,10-dodecatetraenamide], which “NO Production (% of LPS Control)” value ([1]; 1 µmol/L test compound) is on record?
Answer: The value was 92 % of LPS Control.

Question: What about the “NO Production (% of LPS Control)” value ([1]; 10 µmol/L test compound) of the same compound?
Answer: Its value is 82 % of LPS Control.

Question: What about the “Effect on LPS-induced NO production in BV-2 microglial cells” value [2] of the same compound?
Answer: The value was “inhibitory effect”.

Question: With `c1cc2c(cc1[C@H]1OC[C@H]3[C@@H]1CO[C@H]3c1ccc3c(c1)OCO3)OCO2` [Asarinin, (−)-Asarinin] as the compound, how does the “NO Production (% of LPS Control)” value ([1]; 1 µmol/L test compound) read?
Answer: The value was 99 % of LPS Control.

Question: And the “NO Production (% of LPS Control)” value ([1]; 10 µmol/L test compound)?
Answer: The value was 97 % of LPS Control.

Question: Which results are given for `CCC(=O)c1cc2c(cc1OC)OCO2` [Methyl kakuol]?
Answer: NO Production (% of LPS Control) ([1]; 1 µmol/L test compound): 102 % of LPS Control; NO Production (% of LPS Control) ([1]; 10 µmol/L test compound): 93 % of LPS Control

Question: Which “NO Production (% of LPS Control)” value ([1]; 1 µmol/L test compound) does the source give for `c1cc2c(cc1[C@H]1OC[C@H]3[C@@H]1CO[C@@H]3c1ccc3c(c1)OCO3)OCO2` [Sesamin] here?
Answer: Its value is 96 % of LPS Control.

Question: What about the “NO Production (% of LPS Control)” value ([1]; 10 µmol/L test compound) of the same compound?
Answer: Its value is 78 % of LPS Control.

Question: And the “Effect on LPS-induced NO production in BV-2 microglial cells” value [2]?
Answer: Its value is “inhibitory effect”.

Reference: paper PMC7570662, “In Vivo Pharmacokinetic Analysis Utilizing Non-Targeted and Targeted Mass Spectrometry and In Vitro Assay against Transient Receptor Potential Channels of Maobushisaishinto and Its Constituent Asiasari Radix” (Molecules, 2020)
